Assay results reported in patent publication US9029391B2 (priority 2011, dated 2015).
Where a name gives a salt, the structure may show the parent alone.

The compounds below were run on HIV (assay: MT4 Assay (anti-HIV activity)). Conditions: Human immunodeficiency virus 1, 96 h, read-out: HIV MT4 Assay IC50, HTLV-1 transformed cell line MT-4, cell titer glo, 10 point dose response curve.
Type: cell-based
Procedure, shortened: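 MT-4 cells (HTLV-1 transformed) were used for antiviral activity and cytotoxicity, run in parallel, with luminescence read by CellTiter-Glo 96 hours later. Percent inhibition was expressed against the no-compound control. IC50s came from 10-point curves of 3-4-fold serial dilutions spanning >1000-fold.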

Row | Compound | IC50 [µM]
1 | COc1ccc(Cc2ccc3c(-c4ccc(C)c(C)c4)c(C(OC(C)(C)C)C(=O)O)n(C)c(=O)c3c2)cc1 (centres unmarked) [Example 171, [(1,1-dimethylethyl)oxy](4-(3,4-dimethylphenyl)-2-methyl-7-{[4-(methyloxy)phenyl]methyl}-1-oxo-1,2-dihydro-3-isoquinolinyl)acetic acid] | 1.3
2 | Cc1ccc(-c2c(C(OC(C)(C)C)C(=O)O)n(C)c(=O)c3cc(CC(C)C)ccc23)cc1C (centres unmarked) [Example 172, [(1,1-dimethylethyl)oxy][4-(3,4-dimethylphenyl)-2-methyl-7-(2-methylpropyl)-1-oxo-1,2-dihydro-3-isoquinolinyl]acetic acid] | 0.27
3 | Cc1ccc(-c2c(C(OC(C)(C)C)C(=O)O)n(C)c(=O)c3cc(C(N)=O)ccc23)cc1C (centres unmarked) [Example 178, [7-(aminocarbonyl)-4-(3,4-dimethylphenyl)-2-methyl-1-oxo-1,2-dihydro-3-isoquinolinyl][(1,1-dimethylethyl)oxy]acetic acid] | 50
4 | Cc1ccc(-c2c(C(OC(C)(C)C)C(=O)O)n(C)c(=O)c3cc(CN)ccc23)cc1C (centres unmarked) [Example 179, [7-(aminomethyl)-4-(3,4-dimethylphenyl)-2-methyl-1-oxo-1,2-dihydro-3-isoquinolinyl][(1,1-dimethylethyl)oxy]acetic acid-TFA salt] | 50
5 | Cc1ccc(-c2c(C(OC(C)(C)C)C(=O)O)n(C)c(=O)c3cc(CNCc4ccc5c(-c6ccc(C)c(C)c6)c(C(OC(C)(C)C)C(=O)O)n(C)c(=O)c5c4)ccc23)cc1C (centres unmarked) [Example 180, 2,2′-(iminobis{methanediyl[4-(3,4-dimethylphenyl)-2-methyl-1-oxo-1,2-dihydroisoquinoline-7,3-diyl]})bis{[(1,1-dimethylethyl)oxy]acetic acid}] | 12.4
6 | Cc1ccc(-c2c(C(OC(C)(C)C)C(=O)O)n(C)c(=O)c3cc(CN4CCOCC4)ccc23)cc1C (centres unmarked) [Example 181] | 0.27
7 | Cc1ccc(-c2c(C(OC(C)(C)C)C(=O)O)n(C)c(=O)c3cc(CN(Cc4ccccn4)Cc4ccccn4)ccc23)cc1C (centres unmarked) [Example 182, 2-(7-((bis(pyridin-2-ylmethyl)amino)methyl)-4-(3,4-dimethylphenyl)-2-methyl-1-oxo-1,2-dihydroisoquinolin-3-yl)-2-(tert-butoxy)acetic acid] | 1.38
8 | Cc1ccc(-c2c(C(OC(C)(C)C)C(=O)O)n(C)c(=O)c3cc(CNCc4ccccn4)ccc23)cc1C (centres unmarked) [Example 183, 2-(tert-butoxy)-2-(4-(3,4-dimethylphenyl)-2-methyl-1-oxo-7-(((pyridin-2-ylmethyl)amino)methyl)-1,2-dihydroisoquinolin-3-yl)acetic acid] | 3.61
9 | CC(=O)NCc1ccc2c(-c3ccc(C)c(C)c3)c(C(OC(C)(C)C)C(=O)O)n(C)c(=O)c2c1 (centres unmarked) [Example 184, 2-(7-(acetamidomethyl)-4-(3,4-dimethylphenyl)-2-methyl-1-oxo-1,2-dihydroisoquinolin-3-yl)-2-(tert-butoxy)acetic acid] | 31.4
10 | CCNC(=O)NCc1ccc2c(-c3ccc(C)c(C)c3)c(C(OC(C)(C)C)C(=O)O)n(C)c(=O)c2c1 (centres unmarked) [Example 185, 2-(tert-butoxy)-2-(4-(3,4-dimethylphenyl)-7-((3-ethylureido)methyl)-2-methyl-1-oxo-1,2-dihydroisoquinolin-3-yl)acetic acid] | 37.4
11 | Cc1ccc(-c2c(C(OC(C)(C)C)C(=O)O)n(C)c(=O)c3cc(CNC(=O)C(=O)O)ccc23)cc1C (centres unmarked) [Example 186, 2-(tert-butoxy)-2-(7-((carboxyformamido)methyl)-4-(3,4-dimethylphenyl)-2-methyl-1-oxo-1,2-dihydroisoquinolin-3-yl)acetic acid] | 50
12 | Cc1ccc(-c2c(C(OC(C)(C)C)C(=O)O)n(C)c(=O)c3cc(CNS(C)(=O)=O)ccc23)cc1C (centres unmarked) [Example 187, 2-(tert-butoxy)-2-(4-(3,4-dimethylphenyl)-2-methyl-7-(methylsulfonamidomethyl)-1-oxo-1,2-dihydroisoquinolin-3-yl)acetic acid] | 22.9
13 | Cc1ccc(-c2c(C(OC(C)(C)C)C(=O)O)n(C)c(=O)c3cc(CNS(=O)(=O)N(C)C)ccc23)cc1C (centres unmarked) [Example 188, 2-(tert-butoxy)-2-(4-(3,4-dimethylphenyl)-7-(((N,N-dimethylsulfamoyl)amino)methyl)-2-methyl-1-oxo-1,2-dihydroisoquinolin-3-yl)acetic acid] | 3.7
14 | Cc1ccc(-c2c(C(OC(C)(C)C)C(=O)O)n(C)c(=O)c3cc(-c4cccn4C)ccc23)cc1C (centres unmarked) [Example 191, [(1,1′-dimethylethyl)oxy][4-(3,4-dimethylphenyl)-2-methyl-7-(1-methyl-1H-pyrrol-2-yl)-1-oxo-1,2-dihydro-3-isoquinolinyl]acetic acid] | 0.35
15 | Cc1ccc(-c2c(C(OC(C)(C)C)C(=O)O)n(C)c(=O)c3cc(-c4cnn(C)c4)ccc23)cc1C (centres unmarked) [Example 192, [(1,1-dimethylethyl)oxy][4-(3,4-dimethylphenyl)-2-methyl-7-(1-methyl-1H-pyrazol-4-yl)-1-oxo-1,2-dihydro-3-isoquinolinyl]acetic acid] | 0.35
16 | Cc1ccc(-c2c(C(OC(C)(C)C)C(=O)O)n(C)c(=O)c3cc(-c4ccoc4C)ccc23)cc1C (centres unmarked) [Example 193, [(1,1-dimethylethyl)oxy][4-(3,4-dimethylphenyl)-2-methyl-7-(2-methyl-3-furanyl)-1-oxo-1,2-dihydro-3-isoquinolinyl]acetic acid] | 1.34
17 | Cc1ccc(N(C)c2c(C(OC(C)(C)C)C(=O)O)n(C)c(=O)c3ccccc23)cc1C (centres unmarked) [Example 212, 2-(tert-Butoxy)-2-(4-((3,4-dimethylphenyl)(methyl)amino)-2-methyl-1-oxo-1,2-dihydroisoquinolin-3-yl)acetic acid] | 50
18 | CCCC(C(=O)O)c1c(-c2ccc(C)cc2C)c2ccccc2c(=O)n1C (centres unmarked) [Example 216, 2-[4-(2,4-dimethylphenyl)-2-methyl-1-oxo-1,2-dihydro-3-isoquinolinyl]pentanoic acid] | 36.6
19 | Cc1ccc(-c2c(C(CC(C)C)C(=O)O)n(C)c(=O)c3ccccc23)c(C)c1 (centres unmarked) [Example 217, 2-[4-(2,4-dimethylphenyl)-2-methyl-1-oxo-1,2-dihydro-3-isoquinolinyl]-4-methylpentanoic acid] | 13.1
20 | CCOC(C(=O)O)c1c(-c2ccc(C)cc2C)c2ccccc2c(=O)n1C (centres unmarked) [Example 218, [4-(2,4-dimethylphenyl)-2-methyl-1-oxo-1,2-dihydro-3-isoquinolinyl](ethyloxy)acetic acid] | 33.2
21 | Cc1ccc(-c2c(C(OC(C)(C)C)C(=O)O)n(C)c(=O)c3cc(-c4cn(CCO)nn4)ccc23)c(C)c1 (centres unmarked) [Example 219, [(1,1-dimethylethyl)oxy]{4-(2,4-dimethylphenyl)-7-[1-(2-hydroxyethyl)-1H-1,2,3-triazol-4-yl]-2-methyl-1-oxo-1,2-dihydro-3-isoquinolinyl}acetic acid] | 11.1

Same assay, conditions: read-out: HIV MT4 Assay IC50; HTLV-1 transformed cell line MT-4; 96 hours; cell titer glo; 10 point dose response curve

Row | Compound | IC50 [µM]
22 | Cc1c(-c2c([C@@H](OC(C)(C)C)C(=O)O)n(C)c(=O)c3ccccc23)cc(F)c2c1CCCO2 [Example 161, (2R)-2-(tert-butoxy)-2-[4-(8-fluoro-5-methyl-3,4-dihydro-2H-1-benzopyran-6-yl)-2-methyl-1-oxo-1,2-dihydroisoquinolin-3-yl]acetic acid] | 7.21
23 | Cc1c(-c2c([C@H](OC(C)(C)C)C(=O)O)n(C)c(=O)c3ccccc23)cc(F)c2c1CCCO2 [Example 162, (2S)-2-(tert-butoxy)-2-[4-(8-fluoro-5-methyl-3,4-dihydro-2H-1-benzopyran-6-yl)-2-methyl-1-oxo-1,2-dihydroisoquinolin-3-yl]acetic acid] | 4.19
